According to ChEMBL document CHEMBL1201862, “PubChem BioAssay data set” (2004):
Activity calls are given as the source filed them. For most assays here, no stated cut-off is given here; in the data, actives have a measured EC50 and inactives only a lower limit.

How the values were obtained:
[1] = biological target: T1, Protein skinhead-1 (Caenorhabditis elegans, UniProt P34707); format: functional
T1 sequence (P34707 whole entry): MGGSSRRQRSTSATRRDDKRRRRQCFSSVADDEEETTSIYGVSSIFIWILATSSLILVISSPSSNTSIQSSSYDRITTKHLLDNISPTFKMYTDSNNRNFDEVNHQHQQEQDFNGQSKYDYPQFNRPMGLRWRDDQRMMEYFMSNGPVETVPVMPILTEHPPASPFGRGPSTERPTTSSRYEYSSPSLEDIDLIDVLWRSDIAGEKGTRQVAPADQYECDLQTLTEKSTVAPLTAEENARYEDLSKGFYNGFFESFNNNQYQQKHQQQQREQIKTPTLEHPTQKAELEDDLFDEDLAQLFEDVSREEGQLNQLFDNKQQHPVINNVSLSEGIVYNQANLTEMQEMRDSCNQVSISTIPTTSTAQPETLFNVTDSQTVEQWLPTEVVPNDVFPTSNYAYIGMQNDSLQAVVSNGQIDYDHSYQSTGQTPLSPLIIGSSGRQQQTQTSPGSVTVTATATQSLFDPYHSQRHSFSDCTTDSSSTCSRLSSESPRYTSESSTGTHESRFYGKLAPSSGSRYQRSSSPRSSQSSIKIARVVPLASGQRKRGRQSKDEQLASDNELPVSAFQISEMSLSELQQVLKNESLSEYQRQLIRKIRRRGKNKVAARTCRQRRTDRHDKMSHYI

[2] = test system: H4; test: Luminescence Cell-Based Dose Response HTS to Identify Activators of 5'UTR Stem-Loop Driven Prion Protein mRNA Translation in H4 Neuroglioblastoma Cells. [Related pubchem assays: 1829 (Project Summary), 1814 (Primary HTS)]; format: functional; conditions: Homo sapiens
[3] = Luminescence Cell-Based Dose Confirmation HTS to Identify Activators of 5'UTR Stem-Loop Driven Alpha-Synuclein mRNA Translation in H4 Neuroglioblastoma Cells. [Related pubchem assays: 1829 (Project Summary), 1814 (Primary HTS)]; format: functional
[4] = Luminescence Cell-Based Dose Response HTS to Identify Activators of Luciferase Translation or Activity in H4 […] Cells. [Related pubchem assays: 1829 (Project Summary), 1814 (Primary HTS)]; format: functional
[5] = viability of uninfected HEp-2 cells – cell-based, HTS, cytotoxicity control for RSV inhibitor project, dose response (AID 2410); format: functional; conditions: human respiratory syncytial virus
[6] = luciferase reporter signal suppression in cells – H4 neuroglioma cells, luminescence, dose response (AID 1990); format: functional, cell-based
[7] = Luminescence Cell-Based Dose Response HTS to Identify Inhibitors of 5'UTR Stem-Loop Driven Prion Protein mRNA Translation in H4 Neuroglioblastoma Cells. [Related pubchem assays: 1827 (Project Summary), 1813 (Primary HTS)]; format: functional
[8] = alpha-synuclein stem-loop luciferase translation blockers – H4 neuroglioma cells, luminescence, confirmation (AID 1988); format: functional, cell-based
[9] = biological target: T2, Heat shock factor protein 1 (Mus musculus, UniProt P38532); test: decrease of HSF1-responsive luciferase luminescence – cell-based, NIH3T3, dose retest, confirmation (AID 2382); format: functional;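 further: NIH3T3 fibroblasts with HSF1-driven luciferase reporter stressed by proteasome inhibitor MG132; luminescence from HSF1-driven luciferase expression after 8 hours of MG132 stress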
T2 sequence (P38532 whole entry): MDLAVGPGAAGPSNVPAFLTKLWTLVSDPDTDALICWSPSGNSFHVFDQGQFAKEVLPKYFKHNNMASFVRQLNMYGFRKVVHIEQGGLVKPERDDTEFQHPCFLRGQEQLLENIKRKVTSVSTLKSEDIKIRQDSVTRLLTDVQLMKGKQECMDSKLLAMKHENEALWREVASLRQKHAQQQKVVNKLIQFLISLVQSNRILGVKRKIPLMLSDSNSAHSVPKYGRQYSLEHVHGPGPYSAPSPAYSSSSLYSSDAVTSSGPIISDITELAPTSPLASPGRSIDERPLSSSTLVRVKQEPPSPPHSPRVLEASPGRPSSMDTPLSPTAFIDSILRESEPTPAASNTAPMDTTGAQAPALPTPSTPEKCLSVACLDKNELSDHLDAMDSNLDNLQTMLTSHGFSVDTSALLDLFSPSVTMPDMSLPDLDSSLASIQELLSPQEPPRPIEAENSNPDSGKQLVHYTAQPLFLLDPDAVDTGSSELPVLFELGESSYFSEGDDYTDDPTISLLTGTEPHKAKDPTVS

[10] = Luminescence Cell-Based Dose Retest to Confirm Inhibitors of Cancer Stem Cells. [Related pubchem assays (depositor defined):AID2717, AID2721]; format: functional; conditions: Homo sapiens
[11] = test system: Streptococcus sp. 'group A'; test: Streptococcus pyogenes SK(-)GAS viability under kanamycin – luminescence, BacTiterGlo, confirmation, counter-screen for streptokinase expression inhibitor project, dose response (AID 1900); format: functional, organism-based
[12] = biological target: T3, Streptokinase A (Streptococcus pyogenes serotype M1, UniProt P10520); test: viability-normalized secreted streptokinase activity reduction – plasminogen activation absorbance, OD405, dose response (AID 1914); format: functional, Streptococcus pyogenes M1 GAS;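 further: secreted streptokinase activity via plasminogen activation per viability signal from cell pellet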
T3 sequence (P10520 whole entry): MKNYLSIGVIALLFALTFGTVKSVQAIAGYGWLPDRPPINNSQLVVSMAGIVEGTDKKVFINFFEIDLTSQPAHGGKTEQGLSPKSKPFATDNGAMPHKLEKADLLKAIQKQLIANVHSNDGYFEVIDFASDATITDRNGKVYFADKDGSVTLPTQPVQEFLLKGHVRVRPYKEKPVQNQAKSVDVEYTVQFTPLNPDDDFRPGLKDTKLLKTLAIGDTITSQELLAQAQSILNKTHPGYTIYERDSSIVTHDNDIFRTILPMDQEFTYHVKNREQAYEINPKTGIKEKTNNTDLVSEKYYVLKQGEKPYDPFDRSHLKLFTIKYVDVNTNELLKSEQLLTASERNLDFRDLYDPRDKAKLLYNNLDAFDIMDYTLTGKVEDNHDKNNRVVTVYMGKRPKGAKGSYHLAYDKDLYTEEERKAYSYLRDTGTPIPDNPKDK

[13] = test system: Streptococcus; test: GAS UMAA2166 growth inhibition – luminescence, BacTiterGlo, counter-screen for streptokinase expression inhibitor project, dose response (AID 1915); format: functional, organism-based;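 further: potency for reduction of bacterial viability or growth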
[14] = test system: INS1; test: INS-1E survival protection against cytokine death – cell-based, luminescence, retest, dose response (AID 449756); format: functional; conditions: Rattus norvegicus;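 further: cell death triggered by IL-1 beta plus TNF-alpha plus IFN-gamma mixture; protective hits raise ATP signal compared with cytokine alone wells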
[15] = Trypanosoma cruzi growth suppression in host cells – NIH3T3 host cells, beta-gal luminescence, confirmation (AID 2044); format: functional, cell-based;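 further: intracellular parasites grown in NIH/3T3 mouse fibroblasts as host cells; luminescent beta-galactosidase reporter signal from transgenic T. cruzi replicating inside host cells; inhibitors lower the luminescence signal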
[16] = NIH3T3 cell viability loss – ATP luminescence, mouse fibroblasts, counter-screen, dose response (AID 2010); format: functional, cell-based;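 further: cells exposed to compound for about 90 hours before reading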

Compound: O=C(NC1CCCC1)C1C(c2ccc(C(F)(F)F)cc2)=Nc2ccccc2N1C(=O)c1ccco1 (configuration not stated)
- IC50 [1]: > 100 µM (inactive)

Compound: Cc1ccc(NC(=O)Cn2nnc3ccccc32)cc1
- EC50 [2]: 111 µM (active)
- EC50 [3]: 17.5 µM (active)
- EC50 [4]: > 120 µM (not active)

Compound: Clc1cc(Cl)c2nc(N3CCCC3)sc2c1
- IC50 [1]: 27.1 µM (active)

Compound: COc1ccccc1-c1cc(C(=O)N/N=C/c2ccc(C)s2)c2ccccc2n1
- CC50 [5]: 32.2 µM (active)

Compound: CCc1ccccc1N=C(S)N=C(N)Nc1nc(C)c2cc(C)ccc2n1
- EC50 [6]: > 120 µM (not active)
- EC50 [7]: > 120 µM (not active)
- EC50 [8]: 29.4 µM (active)

Compound: Clc1ccc(-c2nc(CSc3ccccn3)cs2)cc1
- IC50 [1]: 59.1 µM (inactive)

Compound: Oc1nc(N/N=C/c2ccccc2Br)nnc1-c1ccccc1
- CC50 [5]: 30.9 µM (active)

Compound: CC(C)c1nnc(NC(=O)C2CCN(C(=O)c3ccco3)CC2)s1
- EC50 [9]: > 195 µM (not active)

Compound: O=C(C[C@H]1C[C@H](C(=O)N2CCOCC2)[C@@]2(CCC3CCCC3)c3[nH]c4cc(-c5ccco5)ccc4c3CCN2C1=O)NCc1ccco1
- IC50 [1]: > 100 µM (inactive)

Compound: COc1cccc(/C=C/c2nc(C#N)c(NCC(C)C)o2)c1
- AC50 [10]: 2.19 µM (active)

Compound: CCOC(=O)c1c(C)n(C)c2ccc(OCC(O)Cn3nc(C)c(Br)c3C)cc12 (configuration not stated)
- EC50 [11]: 15.6 µM (active)
- EC50 [12]: > 150 µM (not active)
- EC50 [13]: 38.1 µM (active)
- CC50 [5]: 15.6 µM (active)

Compound: C=CCn1c(SCC(=O)N2CCc3ccccc3C2)nc2sc(C)c(C)c2c1=O
- EC50 [9]: > 195 µM (not active)

Compound: COc1ccc(/C(O)=C\C=N\c2cc(C)on2)c(OC)c1
- EC50 [9]: > 195 µM (not active)

Compound: COc1cc(/C=N/NC(=S)NC2CC3CC2C2C=CCC32)ccc1O (configuration not stated)
- EC50 [2]: > 120 µM (not active)
- EC50 [3]: > 120 µM (not active)
- EC50 [4]: 69.7 µM (active)

Compound: O=C(Nc1ccc(C(O)(C(F)(F)F)C(F)(F)F)cc1)c1ccc(Cl)c([N+](=O)[O-])c1
- AC50 [10]: 5.95 µM (active)

Compound: CCCn1c2ccccc2c2nnc(SCC(=O)Nc3c(C)n(C)n(-c4ccccc4)c3=O)nc21
- EC50 [6]: > 120 µM (not active)
- EC50 [7]: > 120 µM (not active)
- EC50 [8]: > 120 µM (not active)

Compound: Clc1ccc(-c2nnc(SCc3ccon3)o2)c(Cl)c1
- IC50 [1]: 60.2 µM (inactive)

Compound: COC(=O)c1ccc(Cn2nnc3c(O)nc(C4CCN(S(=O)(=O)c5ccc(F)cc5)CC4)nc32)cc1
- EC50 [9]: > 195 µM (not active)

Compound: O=C(NNC(=O)c1ccccc1OCc1ccccc1)c1ccccc1O
- AC50 [14]: 2.76 µM (active)
- EC50 [6]: 3.92 µM (active)
- EC50 [7]: 11.6 µM (active)
- EC50 [8]: 5.27 µM (active)

Compound: COc1ccc(CC(=O)NCc2ccc3c(c2)cc(C)n3C)cc1
- IC50 [1]: > 100 µM (inactive)

Compound: Cc1cc(C)nc(N=C(N)Nc2ccc3c(c2)OCCO3)n1
- EC50 [9]: > 195 µM (not active)

Compound: NC(=O)CC(NC(=O)Cc1cccc2ccccc12)c1ccc(NC2CC3CCC2C3)c([N+](=O)[O-])c1 (configuration not stated)
- CC50 [5]: > 50 µM (active)

Compound: O=C(Nc1ccc(Cl)c(Cl)c1)c1ccc2c(c1)OCO2
- CC50 [5]: > 50 µM (active)

Compound: Cc1cccc(N(C(=O)c2nsc(Cl)c2Cl)C(C(=O)NC2CCCC2)c2ccc(O)cc2)c1 (configuration not stated)
- EC50 [2]: > 120 µM (not active)
- EC50 [3]: 0.548 µM (active)
- EC50 [4]: 1.09 µM (active)

Compound: Cc1nn(-c2ccccc2)c(C)c1/C=N/n1c(S)nnc1-c1ccc(C(C)(C)C)cc1
- AC50 [10]: 5.78 µM (active)
- EC50 [11]: 3.13 µM (active)
- EC50 [12]: > 150 µM (not active)
- EC50 [13]: 5.35 µM (active)

Compound: O=C(Cn1nnc2ccccc21)NNC(=S)NC1CCCCC1
- EC50 [9]: > 195 µM (not active)

Compound: CCOc1ccc(C(=O)OCC(=O)c2c(N)n(C)c(=O)n(C)c2=O)cc1OCC
- EC50 [2]: 46.7 µM (inconclusive)
- EC50 [3]: > 120 µM (not active)
- EC50 [4]: > 120 µM (not active)

Compound: CC(C)(C)c1ccc(NC(=O)c2c(F)cccc2Cl)cc1
- CC50 [5]: 43.5 µM (active)

Compound: CCN(CC)C(=O)c1sc(NC(=O)Cc2ccc(OC)cc2)c(C#N)c1C
- IC50 [1]: > 100 µM (inactive)

Compound: Fc1ccc(-c2nnc(Cc3ccc(Cl)cc3)o2)cc1
- IC50 [1]: 20.2 µM (active)

Compound: CC(=O)n1cc(-c2ccncc2)c2ccccc21
- CC50 [5]: 31.5 µM (active)

Compound: CCc1ccc2c(c1)c1nnc(NN)nc1n2C
- EC50 [6]: > 120 µM (not active)
- EC50 [7]: > 120 µM (not active)
- EC50 [8]: > 120 µM (not active)

Compound: CCC(C)(C)C(=O)Nc1ncc(S(=O)(=O)c2ccc([N+](=O)[O-])cc2)s1
- IC50 [1]: > 100 µM (inactive)

Compound: CCOC(=O)C1=C(c2ccccc2)OC(N)=C(C#N)C1C(C)C (configuration not stated)
- EC50 [2]: > 120 µM (not active)
- EC50 [3]: > 120 µM (not active)
- EC50 [4]: > 120 µM (not active)

Compound: O=Nc1c(O)n(Cc2ccc(Cl)cc2Cl)c2ccccc12
- AC50 [10]: 6.86 µM (active)

Compound: C=CCn1c(-c2ccccc2)ccc(C#N)c1=O
- IC50 [1]: 15.8 µM (active)

Compound: Cc1ccc(C(=O)N2CCCC(Nc3ccc(F)cc3)C2)cc1C (configuration not stated)
- EC50 [9]: > 195 µM (not active)

Compound: COc1ccc(O)c(/C=N/Nc2nc(C)cc(-c3ccccc3)n2)c1
- CC50 [5]: 18.1 µM (active)

Compound: CC(=O)c1ccc(NC(=O)CCc2c(C)nc3ncnn3c2C)cc1
- EC50 [2]: 37.1 µM (active)
- EC50 [3]: 73.6 µM (active)
- EC50 [4]: 8.11 µM (active)

Compound: c1ccc(-c2ccc(-n3ccnc3)cc2)cc1
- EC50 [15]: > 30 µM (not active)
- IC50 [1]: 6.11 µM (active)
- EC50 [16]: > 30 µM (not active)

Compound: COc1ccc(N2CCN(c3ccc(NC(=O)NN)cc3)CC2)cc1
- EC50 [9]: > 195 µM (not active)

Compound: O=C1Nc2ccccc2/C1=C\c1cccn1-c1ccc(OC(F)(F)F)cc1
- EC50 [6]: 15.7 µM (active)
- EC50 [7]: > 120 µM (not active)
- EC50 [8]: 15.4 µM (active)

Compound: CC(=O)c1ccc(NC(=O)c2cccc(S(=O)(=O)N3CCN(C)CC3)c2)cc1
- EC50 [2]: 20.7 µM (active)
- EC50 [3]: 15.5 µM (active)
- EC50 [4]: 40.6 µM (active)

Compound: c1ccc(Cc2nnc3sc(-c4cccs4)nn23)cc1
- EC50 [9]: > 195 µM (not active)
